Assay results as given in patent US11083714B2, “Selective anti-cancer agent effective for prevention and treatment” (Molecular International Research, Inc., priority 2018, dated 2021).
“Also recorded” adds a separate entry of the source.

Key:
[1] = mouse, in vivo
Description: To estimate the maximum tolerated dose of compounds 13-7-2 and 13-9-1 in mice, both compounds were dissolved in PBS and given to SCID mice by oral gavage.
Compound 13-7-2 was administered at a dose of 100 mg/kg, 150 mg/kg, or 200 mg/kg. Each dose group consisted of three mice.
Compound 13-9-1 was administered at a dose of 100 mg/kg, 150 mg/kg, or 200 mg/kg by oral gavage (three mice per dose group).
In a separate dose finding/toxicity test with compound 13-9-1, three mice received escalating doses of 50 mg/kg/day for 3 days, 100 mg/kg/day for 7 days, 200 mg/kg/day for 7 days, and 300 mg/kg/day for 3 days, given by oral gavage. Mice were monitored closely for toxic signs.

[2] = test system: glioblastoma cell lines U-87MG, DBTRG-05MG, A172; assay: Glioblastoma cell viability and proliferation assay (ATP); format: cell-based; details: 3 nM to 30 uM, 72 hr
Description: FIG. 9. Glioblastoma in vitro cell viability and proliferation assay after treatment with de-ethylflavopereirine. Glioblastoma cell lines U-87MG, DBTRG-05MG, A172, and AM-38 were tested. Temozolomide, an oral chemotherapy drug known to treat some brain cancers, was used as a control. The concentrations of temozolomide (circles) or compound 13-9-1 (squares) used were 3 nM, 10 nM, 30 nM, 100 nM, 1 uM, 3 uM, 10 uM, and 30 uM. Each of the cell lines was treated with de-ethylflavopereirine for 72 hr before measuring cytotoxicity and inhibition of cell proliferation. Number of viable cells in culture based on quantitation of ATP. IC50 was determined as indicated below each graph.
The dose-response curves for the anti-brain cancer drug temozolomide are shown for comparison.

[3] = test system: PANC-1, MIA PaCa, BxPc; assay: Apoptosis by flow cytometry in pancreatic cancer cell lines; format: cell-based; details: 10 μM and 20 μM
Description: FIG. 11. De-ethylflavopereirine induces apoptosis in pancreatic cancer cell lines PANC-1 (top), MIA PaCa (middle), and BxPc (bottom). Following exposure of cells to de-ethylflavopereirine at concentrations of 0.5 μM, 10 μM, and 20 μM, flow cytometry was used to assess the percentage of cells undergoing early apoptosis (clear), late apoptosis (dark), or necrosis (stipple). […] Values are mean±SEM (n=3). *p≤0.05 compared with control group using Student's t-test; **p≤0.01 compared with control group using Student's t-test.

[4] = test system: PANC-1 pancreatic cancer cells; assay: Anchorage independent colony formation in soft agar; format: cell-based; details: 10 μM or 15 μM, 20 days; listed as De-ethylflavopereirine
Description: FIG. 13. Colony formation in soft agar of PANC-1 pancreatic cancer cells with or without de-ethylflavopereirine treatment.
Anchorage independent colony formation assay in soft agar was used to test long-term survival (20 days) of tumorigenic pancreatic cancer cells after exposure to de-ethylflavopereirine. PANC-1 cells formed colonies at the rate of 12% when untreated. […] No tumorigenic cancer cells survived after exposure to compound 13-9-1 (FIG. 13).

[5] = Plasma concentrations after intravenous or oral administration; format: in vivo, mice
Description: FIG. 15. Plasma concentrations of de-ethylflavopereirine following intravenous or oral administration: intravenous at 20 mg/kg (lozenges) having a peak at approximately 2 hours, oral at 100 mg/kg (squares), or oral at 200 mg/kg (triangles) having a peak at approximately 4 hours.
Oral administration was chosen for the mouse experiments because administration is simplified by avoiding the need for tail vein injections.

[6] = test system: PANC-1 tumors; assay: Orthotopic PANC-1 luciferase tumors in nude mice; format: in vivo
Description: FIG. 16. Animal Study. PANC-1 cells with luciferase gene were orthotopically implanted into the pancreas of nude mice and the tumors were monitored by live-animal imaging. Longitudinal tumor growth shown by quantification of all images in the treated group (lozenges, n=9) and the untreated group (squares, n=10). Tumor burden is represented by average total photon flux (top) and its log transform (bottom).
Human PANC-1 pancreatic cancer cells were transfected with the luciferase gene to enable imaging in vivo. These cells were transplanted into the pancreas of nude mice and, after 10 days, tumors were established in the mice and they were treated with de-ethylflavopereirine by oral gavage. Longitudinal tumor progress was followed by live-animal imaging. The results of this experiment are depicted in FIGS. 16 to 21.

[7] = test system: HT-29 tumors; assay: Subcutaneous HT-29 colon cancer xenografts; format: in vivo; details: for toxicity and deaths of tumor-bearing mice: mouse, in vivo; for TUNEL staining of tumor sections: tumors removed after treatment
Description: FIG. 30. Effect of de-ethylflavopereirine on HT-29 colon cancer tumor volume. Nude mice with subcutaneous xenografts of human HT-29 colon cancer cells were grouped as untreated control (squares), administered compound 13-9-1 (triangles), or administered IFL as conventional chemotherapy regimen (circles). IFL is a combination of irinotecan, fluorouracil, and leucovorin often used for treatment of colorectal cancer. […] Animals were treated for two and a half weeks.
FIGS. 31 to 33 show TUNEL staining of HT-29 tumors removed from untreated mice (control) in FIG. 31, mice administered de-ethylflavopereirine in FIG. 32, or mice administered IFL in FIG. 33. […] After treatments were concluded, tumors were removed from the animals, fixed, thin sectioned, and stained by the TUNEL method to identify cells undergoing apoptosis. In FIG. 31, the borders of tumors from control animals show intact tissue and the absence of TUNEL staining. […] The color images clearly distinguish the dark purple/brown color of cells undergoing apoptotis from the blue color of intact tumor cells.
In this example, the anti-tumor activity of de-ethylflavopereirine was compared with the activity of IFL (a combination of irinotecan, fluorouracil, and leucovorin). IFL has been routinely used in the treatment of colorectal cancer, but is associated with significant toxicity. The toxicity is so severe that some have encapsulated irinotecan in liposomes to reduce negative side effects.
A comparison of the direct impact of de-ethylflavopereirine and IFL on tumors is depicted in FIGS. 32 and 33. Terminal deoxynucleotidyl transferase dUTP nick-end labeling (TUNEL) is a method for detecting DNA fragmentation by labeling the 3′-hydroxyl termini in the double-strand DNA breaks generated during apoptosis. Tumor sections from the two groups and an untreated control group were immunostained by the TUNEL method to specifically identify cells undergoing apoptosis.

Q: With `c1ccc2c(c1)[nH]c1c2cc[n+]2ccccc12` [Compound 13-9-1, 12H-indolo[2,3-a]quinolizin-5-ium] as the compound, how does the “tolerated dose, oral administration” value ([1]; SCID) read?
A: The value was at least 300 mg/kg.

Q: And the deaths ([1]; SCID, po, 200 mg/kg, 48 hr)?
A: The deaths was “One mouse in the 200 mg/kg group died 15 min after the administration of the compound (apparently due to trauma caused by oral gavage)”.

Q: What about the toxic signs ([1]; po, 50 mg/kg/day) of the same compound?
A: Its toxic signs is “No abnormality was observed”.

Q: What about the glioblastoma cell viability [2] of the same compound?
A: Its glioblastoma cell viability is “dose-dependent decrease in glioblastoma cell viability”.

Q: What about the induction of apoptosis [3] of the same compound?
A: The induction of apoptosis was “induction is dose dependent”.

Q: And the induction of apoptosis ([3]; listed as De-ethylflavopereirine)?
A: The induction of apoptosis was “Early apoptosis is the predominant result”.

Q: What about the “colony formation in soft agar” value [4] of the same compound?
A: Its value is “completely inhibited formation of PANC-1 colonies; also recorded: completely inhibited colony formation”.

Q: What about the “time of peak plasma concentration” value ([5]; intravenous at 20 mg/kg) of the same compound?
A: Its value is “approximately 2 hours”.

Q: What about the “time of peak plasma concentration” value ([5]; oral at 200 mg/kg (sentence also lists oral at 100 mg/kg)) of the same compound?
A: The value was “approximately 4 hours”.

Q: And the “body weight compared with untreated control group” value ([6]; day 0 through day 40)?
A: Its value is “indistinguishable”.

Q: What about the “mice whose tumors were completely abolished” value ([6]; oral gavage) of the same compound?
A: Its value is 22%.

Q: What about the “anti-tumor effect by tumor burden (total photon flux)” value ([6]; oral gavage, treated (n=9) vs untreated (n=10)) of the same compound?
A: The value was “significant”.

Q: What about the “mice whose tumors were completely abolished (number of animals)” value ([6]; oral gavage, listed as de-ethylflavopereirine) of the same compound?
A: Its value is 2/9 and two of 21.

Q: And the “examination of internal organs” value ([6]; treated vs untreated)?
A: The value was “failed to reveal any toxic effects”.

Q: What about the “final tumor weights at necropsy” value ([6]; treated vs untreated) of the same compound?
A: The value was “statistically significant reduction”.

Q: And the “metastatic lesions at necropsy” value ([6]; treated vs untreated)?
A: Its value is “reduced”.

Q: What about the “toxicity and deaths of tumor-bearing mice” value [7] of the same compound?
A: The value was “did not have toxic effects on the mice”.

Q: What about the “toxicity and deaths of tumor-bearing mice” value ([7]; nude, 2.5 weeks) of the same compound?
A: The value was “No animals treated with compound 13-9-1 died”.

Q: And the HT-29 tumor volume ([7]; treated for two and a half weeks)?
A: Its HT-29 tumor volume is “reduced HT-29 tumor volumes”.

Q: What about the “TUNEL staining of tumor sections” value [7] of the same compound?
A: Its value is “apoptosis in zones near the periphery of the tumors”.

Q: What about the “TUNEL staining of tumor sections” value ([7]; listed as de-ethylflavopereirine) of the same compound?
A: Its value is “cells on the periphery were undergoing apoptosis”.
